Test results published in a melting point compilation (Tetko et al.).

Compared with O=C(O)c1ccccc1OCc1cccs1, O=C(CCCc1cccs1)Nc1cccc(C(=O)O)c1 is higher in melting point: 87 to 89 °C for the first, 198 to 200 °C for the second.

First: COc1ccc(Br)c(-c2nnn[nH]2)c1
Second: COc1ccc(-c2csc(NC(=O)C(C)Cl)n2)cc1 (stereo unspecified)
The melting point of the first is higher: 209 to 211 °C for the first, 124 to 126 °C for the second.

First: ON=Cc1ccccc1OCc1cn2ccccc2n1
Second: O=C(O)c1csc(-c2cccc3ccccc23)n1
The melting point of the first is higher: 197 to 199 °C for the first, 144 to 146 °C for the second.

First: NS(=O)(=O)c1cccc(NC(=O)CCl)c1
Second: CNS(=O)(=O)c1cccc(C(=O)O)c1
The melting point of the first is lower: 162 to 171 °C for the first, 209 to 211 °C for the second.

Compared with Cc1ccc(C(=O)c2cccnc2)cc1, O=C(NCc1cccc(Cl)c1)c1ccc(F)cc1 is lower in melting point: 71 to 73 °C for the first, 59 to 61 °C for the second.

First: CCOC(=O)N1CCNC(=O)CC1
Second: NC(=O)C1(N2CCNCC2)CCCC1
The melting point of the first is lower: 103 to 105 °C for the first, 138 to 140 °C for the second.

Compared with NC(=S)NC1CCOCC1, O=[N+]([O-])c1ccc(NC2CCCC2)cc1 is lower in melting point: 228 to 230 °C for the first, 86 to 88 °C for the second.

Compared with O=c1cnc2ccccc2n1CCS(=O)(=O)F, O=C(O)COCc1nc2ccccc2c(=O)[nH]1 is higher in melting point: 145 to 147 °C for the first, 259 to 261 °C for the second.

First: CC(C)c1ccc(C=NO)cc1
Second: CC(C)c1ccc(-c2noc(CCl)n2)cc1
The melting point of the first is higher: 64 to 66 °C for the first, 50 to 52 °C for the second.

Compared with O=S1(=O)Cc2ccccc2N1, CNC(=O)c1c[nH]c2ccccc12 is higher in melting point: 123 to 125 °C for the first, 203 to 205 °C for the second.

First: Cn1c(=O)oc2ccc(N)cc21
Second: Nc1ccc(CN2C(=O)CNC2=O)cc1
The melting point of the first is higher: 229 to 231 °C for the first, 168 to 170 °C for the second.

First: CCOc1ccc(S(=O)(=O)NCCC(=O)O)cc1
Second: CON(C)S(=O)(=O)c1ccc(Br)cc1
The melting point of the first is higher: 178 to 180 °C for the first, 81 to 83 °C for the second.

First: O=C(O)C1CCCN(S(=O)(=O)Cc2ccccc2)C1 (stereo unspecified)
Second: O=C1NC2(CCN(Cc3ccccc3)CC2)CO1
The melting point of the first is lower: 128 to 130 °C for the first, 164 to 166 °C for the second.

First: Clc1ccc(OCCBr)c(Br)c1
Second: Fc1ccc2ccc(Cl)nc2c1
The melting point of the first is lower: 30 to 32 °C for the first, 97 to 99 °C for the second.

First: CC1CCN(S(=O)(=O)c2ccc(N)cc2)CC1
Second: N#Cc1ccc(N2CCOC2=O)cc1
The melting point of the first is lower: 108 to 110 °C for the first, 149 to 151 °C for the second.

First: Nc1cccc(COc2ccc3c(c2)OCO3)c1
Second: Nc1ccc(CC(=O)Nc2ccccc2F)cc1
The melting point of the first is lower: 67 to 69 °C for the first, 110 to 112 °C for the second.

Compared with Cc1nnc(S)n1CC(N)=O, CCOC(=O)c1c(CCCO)cnc2cc(C)nn12 is lower in melting point: 232 to 234 °C for the first, 76 to 78 °C for the second.

Compared with Cc1ccc(N(C(=O)CCl)C2C=CS(=O)(=O)C2)cc1C (stereo unspecified), COC(=O)CNC(=O)c1cccc(N)c1 is lower in melting point: 136 to 138 °C for the first, 103 to 105 °C for the second.

Compared with Cc1nn(-c2ccccc2)c(N2CCCC2)c1C=O, Cn1cc(C=O)c(-c2ccc3c(c2)OCCCO3)n1 is higher in melting point: 71 to 73 °C for the first, 99 to 101 °C for the second.

Compared with N#Cc1ccc(Oc2ccccc2C(F)(F)F)nc1, Cn1cc(CN=[N+]=[N-])c(-c2ccc(C#N)cc2)n1 is higher in melting point: 80 to 82 °C for the first, 101 to 103 °C for the second.

Compared with CC(C)c1nc(I)c2ccccn12, Cn1ccnc1SCc1ccccc1[N+](=O)[O-] is higher in melting point: 84 to 86 °C for the first, 86 to 88 °C for the second.

Compared with COc1nc(C)ccc1C(=O)O, O=C(O)c1cc2ccc(F)cc2[nH]1 is higher in melting point: 107 to 109 °C for the first, 227 to 229 °C for the second.

Compared with Cc1nc(N)sc1Cl, Cn1ncc(-c2nc(C3CC3)no2)c1N is higher in melting point: 100 to 102 °C for the first, 159 to 161 °C for the second.

Compared with O=c1[nH]c(CCl)nc2scc(-c3ccc(Cl)cc3)c12, O=C(O)c1ccc2c(=O)[nH][nH]c(=O)c2c1 is higher in melting point: 124 to 126 °C for the first, 250 to 252 °C for the second.

Compared with N#CCNC(=O)c1ccc(Br)cc1, COC(=O)C(=O)CC(=O)c1c(F)cccc1F is lower in melting point: 170 to 172 °C for the first, 88 to 90 °C for the second.

Compared with C=CCn1c(S)nc2sc3c(c2c1=O)CCC(C)C3 (stereo unspecified), O=Cc1cc(C23CC4CC(CC(C4)C2)C3)n[nH]1 is lower in melting point: 228 to 230 °C for the first, 134 to 136 °C for the second.

First: O=C1OC(O)C(Br)=C1Br (stereo unspecified)
Second: Nc1cccc(C=CC(=O)O)c1
The melting point of the first is lower: 122 to 124 °C for the first, 173 to 175 °C for the second.

First: Cc1cc(CNCc2cc(C)c(O)c(C)c2)cc(C)c1O
Second: O=C(O)c1nccn2ccnc12
The melting point of the first is higher: 249 to 251 °C for the first, 167 to 169 °C for the second.
